These are literature values, as cited in US11278564B2, “Brain function-improving agent, food, and medicine using lipopolysaccharide” (Control of Innate Immunity Technology Research Association, priority 2017, dated 2022).

For this data set the following is noted: intraperitoneal injection (NPL 5).

monophosphoryl lipid A [MPL]: the Aβ intracerebral deposition entry was “Aβ intracerebral deposition suppressing action” and the learning function result was “learning function-improving action”.
